Measured values from paper PMC10952593, “Synthetic cannabinoid receptor agonists are monoamine oxidase‐A selective inhibitors” (The Febs Journal, 2023).
Read-outs that look alike come from different tables or passages of the source.

Legend:
Format in all cases: biochemical
MAO-B [1] = target: T1, MAO-B (Homo sapiens, UniProt P27338); assay: UV/Vis, benzaldehyde formation at […] nm
T1 construct: gene MAOB; FAD enzyme; PDB 2V5Z was only the docking model
T1 sequence (P27338 2-520): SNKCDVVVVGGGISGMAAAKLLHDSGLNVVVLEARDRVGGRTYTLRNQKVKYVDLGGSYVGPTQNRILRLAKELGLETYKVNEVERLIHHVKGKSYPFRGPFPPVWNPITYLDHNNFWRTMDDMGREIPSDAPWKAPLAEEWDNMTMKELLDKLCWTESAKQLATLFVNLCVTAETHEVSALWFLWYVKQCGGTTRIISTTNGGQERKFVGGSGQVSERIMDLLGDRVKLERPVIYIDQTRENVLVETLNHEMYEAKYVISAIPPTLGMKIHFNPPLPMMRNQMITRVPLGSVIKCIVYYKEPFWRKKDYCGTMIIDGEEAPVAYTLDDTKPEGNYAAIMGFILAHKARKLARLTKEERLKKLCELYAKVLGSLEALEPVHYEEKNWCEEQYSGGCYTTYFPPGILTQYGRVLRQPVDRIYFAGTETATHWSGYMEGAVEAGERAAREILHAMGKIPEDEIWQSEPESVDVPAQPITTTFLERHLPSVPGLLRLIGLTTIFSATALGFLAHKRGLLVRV

MAO-A [2] = target: T2, MAO-A (Homo sapiens, UniProt P21397); assay: UV/Vis, 4-hydroxyquinoline formation at […] nm
T2 construct: gene MAOA; FAD enzyme; PDB 2Z5X was only the docking model
T2 sequence (P21397 1-527): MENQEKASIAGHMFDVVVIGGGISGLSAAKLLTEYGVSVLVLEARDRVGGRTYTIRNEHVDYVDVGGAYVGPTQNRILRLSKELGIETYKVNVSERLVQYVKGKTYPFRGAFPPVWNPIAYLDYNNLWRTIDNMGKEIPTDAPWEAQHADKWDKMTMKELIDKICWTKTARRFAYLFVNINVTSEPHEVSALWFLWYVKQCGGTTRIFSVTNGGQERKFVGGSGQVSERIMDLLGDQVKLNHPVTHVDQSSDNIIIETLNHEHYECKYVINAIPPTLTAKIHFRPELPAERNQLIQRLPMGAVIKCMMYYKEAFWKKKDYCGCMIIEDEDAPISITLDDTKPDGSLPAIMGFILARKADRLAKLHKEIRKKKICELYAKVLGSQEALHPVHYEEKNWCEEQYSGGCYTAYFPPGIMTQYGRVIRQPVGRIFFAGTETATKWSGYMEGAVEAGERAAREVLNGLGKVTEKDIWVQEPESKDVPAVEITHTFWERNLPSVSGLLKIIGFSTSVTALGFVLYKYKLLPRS

MAO-A [3] = target: T2, MAO-A; assay: steady-state UV/Vis, 4-hydroxyquinoline at […] nm; settings: 20 μM MAO-A as printed, 50 mM HEPES pH 7.5, 0.5% Triton X-100, 25 °C
MAO-B [4] = target: T1, MAO-B; assay: UV/Vis, benzaldehyde formation at […] nm; settings: 1.5 mM benzylamine, 30 μM MAO-B [sic], 50 mM HEPES pH 7.5, 0.5% Triton X-100, 25 °C; IC50 relative to fitted Imax (Hill-type fit); unreliable

Molecule	IC50 (MAO-B [1])	also measured
N‐[[1‐(5‐fluoropentyl)‐1H‐indazol‐3‐yl]carbonyl]‐3‐methyl‐D‐valine methyl ester [compound 1]		IC50 (MAO-B [1]; 1.5 mM benzylamine, 30 μM MAO-B [sic], 50 mM HEPES pH 7.5, 0.5% Triton X-100, 25 °C, IC50 relative to fitted Imax (Hill-type fit)): 420 ± 190 µM; IC50 (MAO-A [2]; 1 mM kynuramine, 20 μM MAO-A as printed, 50 mM HEPES pH 7.5, 0.5% Triton X-100, 25 °C, IC50 relative to fitted Imax (Hill-type fit)): 87.8 ± 4.38 µM
NCCC(=O)c1ccccc1N [compound 12, kynuramine]		Km (MAO-A [3]): 140 ± 30 µM
FCCCCCn1ccc2ccccc21 [compound 6, 1‐(5‐fluoropentyl)‐1H‐Indole]	650 ± 90 µM	
FCCCCCn1ncc2ccccc21 [compound 7, 1‐(5‐fluoropentyl)‐1H‐Indazole]	620 ± 20 µM	
Cn1ccc2ccccc21 [compound 10, 1‐methyl‐1H‐Indole]	500 ± 20 µM	
CCCCCn1ncc2ccccc21 [compound 9, 1‐pentyl‐1H‐Indazole]	540 ± 30 µM	
COC(=O)C(NC(=O)c1cn(CCCCCF)c2ccccc12)C(C)(C)C (stereo not shown) [compound 2, methyl‐2‐[[1‐(5‐fluoropentyl)indole‐3‐carbonyl]amino]‐3,3‐dimethyl‐butanoate]		MAO-B / IC50 (MAO-B [4]): 690 ± 420 µM; IC50 (MAO-A [2]): 77.1 ± 1.09 µM
CCCCCn1ccc2ccccc21 [compound 8, 1‐pentyl‐1H‐Indole]	630 ± 30 µM	
